Laboratory results reported in US20070111251A1, “Chemical address tags” (priority 2003, published 2007).

Tested on: HeLa cells
Test: Kinetic imaging of NBD-triazine probe uptake and sequestration, fitted to nested two-compartment transport model
Type: cell-based
Conditions: median over optimal solutions within 5% of the best fit
Description: In living cells, image data was simultaneously acquired with an automated, high-content, kinetic screening instrument equipped with an environmental chamber (see, e.g., V. C. Abraham, D. L. Taylor and J. R. Haskins, Trends in Biotechnology 22, 15 (2004); herein incorporated by reference in its entirety), as cells were incubated with the fluorescent molecules and after removal of extracellular probe. Data was analyzed off line, using an image analysis algorithm to measure the statistical pixel intensity distribution associated with fluorescence probe sequestration in the perinuclear region (see, e.g., FIG. 21; see also, e.g., G. J. Ding et al., Journal of Biological Chemistry 273, 28897 (1998); herein incorporated by reference in its entirety). Data was parametrized with a nested, two-compartment, transport model (see, e.g., W. E. Evans, J. J. Schentag and W. J. Jusko., Applied Pharmacokinetics: Principles of Therapeutic Drug Monitoring (Lippincott Williams & Wilkins, Vancouver, W.A., 1992); herein incorporated by reference in its entirety), using a statistical link function to relate the kinetic coefficient of variation (CV) of pixel intensities in the images with the concentration of probe in vesicles and cytoplasm. Optimal kinetic parameters fitting the experimental data for each probe to the system described by the two-compartment model and statistical link function were determined using the simulated annealing technique (see, e.g., M. Pincus., Oper. Res. 18, 1225 (1979); herein incorporated by reference in its entirety). The present invention is not limited to a particular mechanism. Indeed, an understanding of the mechanism is not necessary to practice the present invention.
To assess how well the model accounts for all the different kinetic traces acquired, a “PVE” (proportion of variance explained) by the model was calculated. The PVE is one minus the ratio of the sum of squared differences between observed and fitted values to the sum of squared differences between observed values and their mean. PVE values close to one indicate good fit to the nested two-compartment model. The average PVE across the probes was 0.92, with >50% of the probes yielded PVE values […]. The present invention is not limited to a particular mechanism. Indeed, an understanding of the mechanism is not necessary to practice the present invention.
Cell culture. HeLa cells were grown in RPMI+10% FCS in a 5% CO2 atmosphere at 37° C. and plated in 96-well plates at a density of 3000 cells/well 24 hours prior to the start of the experiment.
Kinetic Imaging. For influx experiments, cells on 96-well plates were switched to imaging media consisting of RPMI containing 1.0 mM Bromophenol Blue—a soluble, cell-impermeant chromophore used to suppress excitation and emission of extracellular (background) dye fluorescence-, 10 μM probe and 0.1 μM Hoescht 33258 to label the cell nuclei. Plates were then transferred to a KineticScan instrument (Cellomics, Inc., Pittsburgh, Pa.), which contains an environmentally controlled CO2/temperature/humidity chamber, and data was acquired with a 20× objective lens. Images acquisition began approximately 10 min after dye addition, using the Hoescht channel to acquire nuclear images and FITC channel to acquire the NBD image. Plate-scanning mode was used for scanning, in which the instrument builds time-stacks of images by scanning the plate multiple times, returning to the same site of the plate at every scan. For efflux experiments, dye-containing media was removed from the wells of the plate. The wells were washed twice with fresh RPMI medium, imaging media was added, and image acquisition restarted 7 min after the dye-containing media was removed. The last time points of the influx experiment served as the first time point of the efflux experiment. Plates were scanned for approximately two hours in the influx experiment and six hours for the efflux experiment, with each well imaged on average every 7 minutes. […]

SMILES | median Pap(cyto) (apparent partition coefficient between extracellular medium and cytosol) | median Pap(ves) (apparent partition coefficient between cytosol and intracellular vesicles, k(ves)in/k(ves)out)
CC(C)CCNc1nc(NCCCCCCNc2ccc([N+](=O)[O-])c3nonc23)nc(NCc2cccc(F)c2)n1 [Compound E8] | 12.09 | 11.21
CC1CCC(Nc2nc(NCCCCCCNc3ccc([N+](=O)[O-])c4nonc34)nc(NCCC(c3ccccc3)c3ccccc3)n2)CC1 (stereo not shown) [Compound F4] | 1.89 | 43.56
O=[N+]([O-])c1ccc(NCCCCCCNc2nc(NCc3ccccc3)nc(NC3CCCCC3)n2)c2nonc12 [Compound A7] | 7.55 | 33.83
Cc1ccc(CNc2nc(NCCCCCCNc3ccc([N+](=O)[O-])c4nonc34)nc(NC3CCCCC3C)n2)cc1 (stereo not shown) [Compound G5] | 57.45 | 8.94
COc1cccc(CNc2nc(NCCCCCCNc3ccc([N+](=O)[O-])c4nonc34)nc(NCCc3ccccc3)n2)c1 [Compound B10] | 8.21 | 27.03
Cc1ccc(CNc2nc(NCCCCCCNc3ccc([N+](=O)[O-])c4nonc34)nc(NC3CCC(C)CC3)n2)cc1 (stereo not shown) [Compound G4] | 23.97 | 4.01
CCCCCCCCNc1nc(NCCCCCCNc2ccc([N+](=O)[O-])c3nonc23)nc(NCc2cccc(OC)c2)n1 [Compound B3] | 3.43 | 31.61
O=[N+]([O-])c1ccc(NCCCCCCNc2nc(NCCc3ccccn3)nc(NCc3cccc(F)c3)n2)c2nonc12 [Compound E9] | 225.98 | 0.37
COc1ccc(CNc2nc(NCCCCCCNc3ccc([N+](=O)[O-])c4nonc34)nc(NCCc3ccccn3)n2)cc1 [Compound C9] | 12.33 | 16.46

Now from value to molecule:

median Pap(cyto) (apparent partition coefficient between extracellular medium and cytosol) | median Pap(ves) (apparent partition coefficient between cytosol and intracellular vesicles, k(ves)in/k(ves)out) | SMILES
12.22 | 11.80 | COc1cccc(CNc2nc(NCCCCCCNc3ccc([N+](=O)[O-])c4nonc34)nc(NC3CCCCC3)n2)c1 [Compound B7]
141.76 | 0.24 | COc1ccc(CCNc2nc(NCCCCCCNc3ccc([N+](=O)[O-])c4nonc34)nc(NCC3CCCCC3)n2)cc1 [Compound D6]
9.41 | 13.79 | COc1ccc(CCNc2nc(NCCCCCCNc3ccc([N+](=O)[O-])c4nonc34)nc(NCCc3ccccc3)n2)cc1 [Compound D10]
236.99 | 0.24 | COc1ccc(CCNc2nc(NCCCCCCNc3ccc([N+](=O)[O-])c4nonc34)nc(NCCC(C)C)n2)cc1 [Compound D8]
6.63 | 29.18 | Cc1ccc(CNc2nc(NCCCCCCNc3ccc([N+](=O)[O-])c4nonc34)nc(NC3CCCCC3)n2)cc1 [Compound G7]
